{"source": "ChEMBL document CHEMBL1138213", "about": "“Novel multipotent tacrine-dihydropyridine hybrids with improved acetylcholinesterase inhibitory and neuroprotective activities as potential drugs for the treatment of Alzheimer's disease” (J Med Chem, 2006)", "key": {"[1]": {"test": "cells", "conditions": "Homo sapiens, SH-SY5Y", "description": "Antagonist activity at calcium channel expressed in SH-SY5Y cells assessed as blockade of potassium-induced calcium influx increase at 0.3 uM relative to control"}, "[2]": {"tested_on": "SH-SY5Y", "test": "cells", "conditions": "Homo sapiens, read-out: Activity", "description": "Viability of SH-SY5Y cells measured as neuroprotection activity in presence of H2O2 at 0.3 uM relative to control"}, "[3]": {"biological_target": "Cholinesterase (Homo sapiens, UniProt P06276)", "sequence (P06276 whole entry)": "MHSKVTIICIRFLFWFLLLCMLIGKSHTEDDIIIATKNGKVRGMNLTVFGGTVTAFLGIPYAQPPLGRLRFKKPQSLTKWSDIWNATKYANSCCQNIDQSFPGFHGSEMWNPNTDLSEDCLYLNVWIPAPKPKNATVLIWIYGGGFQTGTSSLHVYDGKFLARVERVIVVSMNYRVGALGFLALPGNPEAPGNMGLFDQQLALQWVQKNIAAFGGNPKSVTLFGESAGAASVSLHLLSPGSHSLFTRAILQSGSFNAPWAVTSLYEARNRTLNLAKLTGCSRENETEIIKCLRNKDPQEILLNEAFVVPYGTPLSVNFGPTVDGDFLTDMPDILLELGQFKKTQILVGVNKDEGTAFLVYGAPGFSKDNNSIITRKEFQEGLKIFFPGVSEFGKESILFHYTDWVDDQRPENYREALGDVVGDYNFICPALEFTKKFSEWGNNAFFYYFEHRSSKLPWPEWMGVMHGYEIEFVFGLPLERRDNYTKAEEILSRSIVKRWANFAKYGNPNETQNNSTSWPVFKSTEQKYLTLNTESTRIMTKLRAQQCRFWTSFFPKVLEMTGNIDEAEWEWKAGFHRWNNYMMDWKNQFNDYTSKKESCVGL", "description": "Inhibition of human serum BuChE"}, "[4]": {"biological_target": "Acetylcholinesterase (Electrophorus electricus, UniProt O42275)", "sequence (O42275 whole entry)": "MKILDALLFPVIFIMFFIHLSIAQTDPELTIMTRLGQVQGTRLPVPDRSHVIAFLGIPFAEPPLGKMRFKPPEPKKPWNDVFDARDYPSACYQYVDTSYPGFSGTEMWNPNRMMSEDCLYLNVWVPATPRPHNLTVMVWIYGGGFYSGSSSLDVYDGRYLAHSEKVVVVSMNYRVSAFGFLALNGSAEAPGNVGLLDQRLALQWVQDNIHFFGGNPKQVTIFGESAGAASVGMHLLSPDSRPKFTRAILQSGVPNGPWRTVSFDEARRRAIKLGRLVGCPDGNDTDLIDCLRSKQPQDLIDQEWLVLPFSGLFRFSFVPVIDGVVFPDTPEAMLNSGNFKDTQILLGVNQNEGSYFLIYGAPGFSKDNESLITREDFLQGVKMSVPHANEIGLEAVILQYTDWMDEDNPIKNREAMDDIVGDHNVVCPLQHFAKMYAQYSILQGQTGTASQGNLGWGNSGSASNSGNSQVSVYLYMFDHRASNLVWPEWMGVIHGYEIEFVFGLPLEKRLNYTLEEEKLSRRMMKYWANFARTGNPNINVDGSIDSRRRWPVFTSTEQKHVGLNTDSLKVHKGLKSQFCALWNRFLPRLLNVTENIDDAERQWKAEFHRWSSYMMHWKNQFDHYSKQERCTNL", "description": "Inhibition of Electrophorus electricus AChE"}, "[5]": {"biological_target": "Acetylcholinesterase (Homo sapiens, UniProt P22303)", "sequence (P22303 whole entry)": "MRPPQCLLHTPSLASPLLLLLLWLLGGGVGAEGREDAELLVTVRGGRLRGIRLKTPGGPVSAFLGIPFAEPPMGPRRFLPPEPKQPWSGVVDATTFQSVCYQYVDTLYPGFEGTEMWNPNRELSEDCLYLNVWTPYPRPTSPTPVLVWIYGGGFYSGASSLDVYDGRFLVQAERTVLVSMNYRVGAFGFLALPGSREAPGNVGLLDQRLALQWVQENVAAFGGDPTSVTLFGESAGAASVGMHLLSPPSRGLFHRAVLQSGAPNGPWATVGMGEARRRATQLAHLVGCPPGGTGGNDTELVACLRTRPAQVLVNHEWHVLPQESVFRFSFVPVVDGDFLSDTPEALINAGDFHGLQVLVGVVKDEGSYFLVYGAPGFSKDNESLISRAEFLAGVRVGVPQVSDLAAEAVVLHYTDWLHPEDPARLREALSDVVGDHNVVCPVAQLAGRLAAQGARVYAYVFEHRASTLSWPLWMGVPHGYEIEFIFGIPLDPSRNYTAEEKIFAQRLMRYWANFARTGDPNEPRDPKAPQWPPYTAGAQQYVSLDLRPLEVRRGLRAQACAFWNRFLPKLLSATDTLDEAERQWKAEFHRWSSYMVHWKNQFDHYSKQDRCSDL", "description": "Inhibition of human erythrocyte AChE"}}, "data": [{"compound": "CCOC(=O)C1=C(C)Nc2nc3c(c(N)c2C1c1cccc(OC)c1)CCCC3", "note": "(stereo not drawn)", "values": [{"measurement": "inhibition at 0.3 µM", "setting": "[1]", "result": 31, "unit": "%"}]}, {"compound": "COCCOC(=O)C1=C(C)NC(C)=C(C(=O)OC(C)C)C1c1cccc([N+](=O)[O-])c1", "note": "(stereo not drawn) [NIMODIPINE]", "values": [{"measurement": "inhibition at 0.3 µM", "setting": "[1]", "result": 45.5, "unit": "%"}, {"measurement": "viability at 0.3 µM", "setting": "[2]", "result": 36, "unit": "%"}]}, {"compound": "CCOC(=O)C1=C(C)Nc2nc3c(c(N)c2C1c1ccc(F)cc1)CCCC3", "note": "(stereo not drawn)", "values": [{"measurement": "inhibition at 0.3 µM", "setting": "[1]", "result": 22.2, "unit": "%"}]}, {"compound": "CCOC(=O)C1=C(C)Nc2nc3c(c(N)c2C1c1ccc([N+](=O)[O-])cc1)CCCC3", "note": "(stereo not drawn)", "values": [{"measurement": "inhibition at 0.3 µM", "setting": "[1]", "result": 66.7, "unit": "%"}, {"measurement": "IC50", "setting": "[3]", "result": 34400, "unit": "nM"}, {"measurement": "IC50", "setting": "[4]", "result": 600, "unit": "nM"}, {"measurement": "viability at 0.3 µM", "setting": "[2]", "result": 35.5, "unit": "%"}, {"measurement": "IC50", "setting": "[5]", "result": 309, "unit": "nM"}]}, {"compound": "CCOC(=O)C1=C(C)Nc2nc3c(c(N)c2C1c1ccccc1[N+](=O)[O-])CCCC3", "note": "(stereo not drawn)", "values": [{"measurement": "inhibition at 0.3 µM", "setting": "[1]", "result": 32.6, "unit": "%"}]}, {"compound": "CCOC(=O)C1=C(C)Nc2nc3c(c(N)c2C1c1ccccc1OC)CCCC3", "note": "(stereo not drawn)", "values": [{"measurement": "inhibition at 0.3 µM", "setting": "[1]", "result": 46.5, "unit": "%"}]}, {"compound": "CCOC(=O)C1=C(C)Nc2nc3c(c(N)c2C1c1ccccc1)CCCC3", "note": "(stereo not drawn)", "values": [{"measurement": "inhibition at 0.3 µM", "setting": "[1]", "result": 36.6, "unit": "%"}, {"measurement": "IC50", "setting": "[3]", "result": "> 100000", "unit": "nM"}, {"measurement": "IC50", "setting": "[4]", "result": 80, "unit": "nM"}, {"measurement": "viability at 0.3 µM", "setting": "[2]", "result": 30.6, "unit": "%"}, {"measurement": "IC50", "setting": "[5]", "result": 122, "unit": "nM"}]}, {"compound": "CCOC(=O)C1=C(C)Nc2nc3c(c(N)c2C1c1ccc(OC)cc1)CCCC3", "note": "(stereo not drawn)", "values": [{"measurement": "inhibition at 0.3 µM", "setting": "[1]", "result": 32.8, "unit": "%"}]}, {"compound": "CCOC(=O)C1=C(C)Nc2nc3c(c(N)c2C1c1cccc([N+](=O)[O-])c1)CCCC3", "note": "(stereo not drawn)", "values": [{"measurement": "inhibition at 0.3 µM", "setting": "[1]", "result": 33.6, "unit": "%"}]}, {"compound": "CCOC(=O)C1=C(C)Nc2nc3c(c(N)c2C1c1ccc(C)cc1)CCCC3", "note": "(stereo not drawn)", "values": [{"measurement": "inhibition at 0.3 µM", "setting": "[1]", "result": 29.8, "unit": "%"}, {"measurement": "IC50", "setting": "[3]", "result": "> 100000", "unit": "nM"}, {"measurement": "IC50", "setting": "[4]", "result": 91, "unit": "nM"}, {"measurement": "viability at 0.3 µM", "setting": "[2]", "result": 53.7, "unit": "%"}, {"measurement": "IC50", "setting": "[5]", "result": 169, "unit": "nM"}]}]}
